Peptide text beside a SMILES is read from it.
How the values were obtained:
[1] = tested on: 46BR.1N fibroblasts; assay: XTT proliferation assay; format: cell-based, human; settings: 48 h, 0.1–100 µg/mL, serum-free DMEM, n=16
Experimental: (§1) XTT assay, which is widely used in the measurement of the effect of bioactive compounds (e.g., cytokines, growth factors, and peptides) on cell proliferation was used for the evaluation of IM effect on skin cells and ASCs proliferation. Cells were seeded at a density of 5000 cells per well into 96-well plates (BD, cat.no. 353872), in a medium supplemented with 10% of FBS, which after 24 h was exchanged for a serum-free DMEM medium containing appropriate concentrations of the IM peptide. IM solutions used in the experiments were prepared with double distilled water under sterile conditions. The cells were incubated with the peptide for 48 h or 72 h, then XTT reagent was added and the plates were incubated at 37 °C for 4 h in the presence of 5% CO2, following manufacturer’s instructions (Sigma-Aldrich, St. Louis, MO, USA). Plates were then read using a standard plate reader at OD 490 nm. Cell proliferation was normalized with respect to an untreated control (100%).

[2] = tested on: HaCaT keratinocytes; assay: XTT proliferation assay; format: cell-based, human
Experimental: as §1

[3] = tested on: ASCs; assay: XTT proliferation assay; format: cell-based, human; settings: 48 h, 1.0 and 10 µg/mL, serum-free DMEM, n=16
Experimental: as §1

[4] = tested on: primary cortical neural cultures; assay: Neural viability, CellTiterBlue assay; format: cell-based, Wistar rat; settings: 1, 10, 100, 200 µM, 20 h, 37 °C; CellTiterBlue (Figure S6)
Experimental: Neural viability assessments. Primary cortical neural cultures were obtained from E18.5 Wistar rat embryos. For this purpose, the rat was euthanized in a CO2 chamber. The cortex tissue was immediately excised from the brain, moved to a HBSS medium (diluted 10 × and supplemented with a penicilin/streptomycin mixture), and washed precisely. Afterwards, the tissue was trypsinized for 10 min at 37 °C, and homogenized gently. […] Neural viability was quantitatively examined by CellTiterBlue® (CTB) assay (Promega, G8080) after 20-hour long incubation of the cells at 37 °C in the CO2. […] Fluorescence intensity of the CTB reagent is measured spectrofluorymetrically (560ex/590em) and is proportional to the number of viable cells. No insult sample referred as a 100% viability control and the data from the insulted cells was quantified and presented relatively as mean ± SD. The data was analyzed by a Mann-Whitney test with p-value < 0.05 values considered statistically significant. […]
Influence of Imunofan on neural viability. Influence of Imunofan on neural viability was assessed by exposing the cells to different peptide concentrations (1, 10, 100, 200 µM) for 20 h at 37 °C in a 5% CO2 chamber. […]

[5] = tested on: dendritic cells (DC); assay: Dendritic cell activation in PBMCs, flow cytometry; format: cell-based, human; settings: 0.1 and 1.0 µg/mL, 48 h, active phenotype CD11+, CD80+, CD83+
Experimental: Immunological tests were conducted on human peripheral blood mononuclear cells, isolated from “buffy coats” using a ficoll density gradient (Histopaque, Sigma-Aldrich, St. Louis, MO, USA). Buffy coats for were obtained from blood of healthy anonymous donors of the Regional Center of Blood Donation and Blood Therapy in Gdansk, Poland. After washing in PBS, erythrocyte lysis, and cell counting (cell counter, Bio-Rad), the PBMCs were seeded onto a 24-well culture plate at a density of 10^6 cells/1 mL of RPMI 1640 (Penicillin/Streptomycin, 10% FBS) per well. After cell resting for 24 h, cells were stimulated with IM peptide (0.1 µg/mL and 1.0 µg/mL) for the next 48 h under appropriate conditions (37 °C, 5% CO2). The untreated cells were used as a negative control, whereas cells stimulated with LPS (1 µg/mL) and PHA (2.5 µg/mL) were a positive control. After incubation, the PBMCs were collected, washed with PBS, counted and prepared for flow cytometry analysis. 10^4 cells/100 µl were stained with monoclonal, fluorochrome-conjugated antibodies (anti-CD3, -CD4, -CD8, -CD16, -CD56, -CD25, -CD69, -CD71, -HLA-DR, -CD11c, -CD80, and -CD83) and incubated for 30 min in RT in the dark. Stained cells were analyzed using a flow cytometer (LSRFortessa, BD, USA). All data are presented as percentages due to the application of hospital diagnostic laboratory standards for immune cells analyses.

Compound: CC(C)[C@H](NC(=O)[C@H](CCCCN)NC(=O)[C@H](CC(=O)O)NC(=O)[C@@H](N)CCCNC(=N)N)C(=O)N[C@@H](Cc1ccc(O)cc1)C(=O)N[C@@H](CCCNC(=N)N)C(=O)O [IM, H-Arg-Asp-Lys-Val-Tyr-Arg-OH] (H-RDKVYR-OH)
- increase in proliferation compared to the control [1]: 20–40%
- increase in cell proliferation ([2]; 48 h, 0.1 and 1 µg/mL, serum-free DMEM, XTT, n=16): 20–50%
- increase in proliferation of keratinocytes (abstract) ([2]; as summarised in the abstract, p < 0.05): 20–50%
- increase in proliferation [3]: 10%
- toxicity to primary neural cells (viability) [4]: not toxic
- activation of dendritic cells [5]: not activated
